Data on ten compounds can be found in patent US20220228124A1, “Three-Dimensional Cross-Linked Scaffolds Of Peripheral Blood Plasma And Their Use” (SANFORD HEALTH, priority 2019, published 2022).

In assay [1] the test system is EpCAM+ BCa cells from patient biopsies. Description: Survival of primary patient BCa cells in matched-plasma 3DeTME cultures. The assay is classed as cell-based, human. Particulars: 7 days. How it is done:
Methods: To evaluate the association between different variables, correlation tests were performed using the ggpubr R™ package. The Pearson correlation (r) was assessed in order to measure the linear dependence between two variables after confirmation of a normal distribution of the data. In order to assess the predictive value of the drug response metrics obtained in the 3DeTME assays with cell lines, we compared them with metric data obtained from literature relevant for 2D models (IC50) and other 3D models (IC50), as well as effective concentrations in patients from phase I or II studies that examined the pharmacokinetics of the tested chemotherapies (steady state concentration, Css). A scatterplot correlation graph allowed us to establish the strength, direction and form of the relationship between the in vitro models and the Css clinical data, with Pearson correlation coefficients (r) that were calculated to measure the strength of those relationships. […] Small organoids and single cells cultures were grown and analyzed at days 0.5 (γ0), 3, and 7. […] BCa cell counts were acquired and data was analyzed using FlowJo™ v10 (Ashland, Oreg.). Data was normalized to a predetermined number of counting beads, the proliferation of each condition (fold of γ0) and survival (% of control) was calculated and compared.

Assay [2] deals with fibrinogen found naturally in plasma. Description: Cross-linking time of plasma into 3DeTME matrix. It counts as biochemical, human. The procedure:
(§1) Methods: 3DeTME cultures are formed through the cross-linking of fibrinogen found naturally in plasma. Cross-linking time was assessed by measuring the time necessary to achieve matrix cross-linking using three relevant cross-linkers of the blood coagulation process including Thrombin (0-5 mg/ml), CaCl2 (0-5 mg/ml), and Factor XIII (0-6 mg/ml). The stabilization effects of preventing fibrin degradation and stability improvement in the scaffold was assessed by surveying several chemical antifibrinolytic agents including tranexamic acid (AMCHA) (0-10 mg/ml), Aprotinin ([…]), epsilon-aminocaproic acid (EACA) (0-2.5 mg/ml), and 4-aminomethylbenzoic acid (PAMBA) (0-2.5 mg/ml). The stability of the scaffold was studied by measuring each scaffold weight at day 0 and again measuring scaffold weight at the conclusion of a 3 week time period. 3DeTME culture scaffold structure and morphology was analyzed with scanning electron microscopy (SEM) using a FEI Quanta™ 450 Scanning Electron Microscope at multiple magnifications. The stiffness of the scaffolds was measured by atomic force microscopy (AFM). The Young's modulus was estimated by fitting a modified Hertz model onto the AFM indentation curve using the built in function of AFM software (Asylum Research). Plasma from cancer patients and healthy subjects was analyzed for fibrinogen content through the clotting method of Clauss. The Clauss fibrinogen assay is a quantitative, clot-based, functional assay. The assay measures the ability of fibrinogen to form fibrin clot after being exposed to a high concentration of purified thrombin. Briefly, plasma samples were loaded into the STA-R™ Evolution Expert Series Hemostasis System (Diagnostica Stago Inc., Parsippany, N.J.) and automated testing was carried out by the analyzer. […] 3DeTME culture supernatants were collected and analyzed by a C-Series Custom Cytokine Antibody Array (RayBiotech Inc., Norcross, Ga.) according to the instructions provided by the manufacturer. […] The chemiluminescence signal intensity of each spot was quantified by densitometric analysis (VisionWorks Software). […]

The test system of assay [3] is three breast cancer (BCa) cell lines. Description: 3DeTME drug screening, relative cell count and GR values. The assay is classed as cell-based, human. Particulars: day 7; for response among the BCa cell lines: 3DeTME, 0.1 nM-300 μM. How it is done: (§2) Methods: Three breast cancer (BCa) cell lines were previously labeled with DiD and incorporated in 3DeTME. Half a day after plating, cells were treated with a DMSO control (γCtrl) and increasing concentrations 0.1 nM-300 μM of seven standard-of-care chemotherapeutic drugs including Methotrexate (MTX), Paclitaxel (PTX), Capecitabine (CAP), Cyclophosphamide Monohydrate (CYCLO), Carboplatin (CARBO), Epirubicin Hydrochloride (EPI), and Docetaxel (DTX). Treatments were added on top of 3DeTME in order to simulate drug diffusion into a tumor. Treatments were refreshed at day 4 and BCa cells were retrieved from the different cultures for analysis at day 0.5 (γ0) and day 7. Samples were prepared in PBS for flow cytometry by adding counting beads (424902, Biolegend, CA) in addition to SytoxTM green dead cell stain (excitation 504 nm, emission 523 nm) ([…], Thermo Fisher Scientific, MA) for viability to each sample. BCa cells were identified by gating live cells with a DiD+ signal using the FL4 channel on BD AccuriTM C6 instrument (CFlow Software) (BD Biosciences). A minimum of 5×103 events was acquired per sample and BCa cell counts were acquired and data was analyzed using the FlowJoTM v10 (Ashland, Oreg.) software. Relative cell count and Growth rate (GR) values. The GR values show the partial inhibition effect of the drug when it achieves GR values from 0 to 1, with the cytostatic effect being represented when the value is equal to 0 and the cytotoxic effect being represented when it lies between 0 and -1.

For another assay, the system named is MDA-MB-231. The description is as above. The assay is classed as cell-based, human. As to conditions: 0.1 nM-300 μM, day 7. The procedure: as §2
Assay [4] deals with fibrin degradation in the scaffold. Description: 3DeTME scaffold integrity and stability (weight) with antifibrinolytic agents. Set-up: species or system human. How it is done: as §1
The subject of the next assay is MCF7. Description: 3DeTME drug screening, relative cell count and GR values. The assay is classed as cell-based, human. As to conditions: 0.1 nM-300 μM, day 7.
Assay [5] has as its system CD8+ T cell infiltration (PD-L1 blockade). Description: CD8+ T cell infiltration into 3DeTME matrices seeded with BCa cells. The assay is classed as cell-based, human. Particulars: 3DeTME tumorous (1.5% O2); 5 μM for the first 4 days; read at day 7. How it is done:
Methods: 3DeTME cultures were grown with cancer cells for 4 days, while being exposed to variable O2 environments (21% and 1.5% O2). Peripheral blood mononuclear cells (PBMCs) were incorporated at day 4 as a cell suspension in the medium added on the top of the matrix, while being exposed to the same O2 environment up to day 7, (FIG. 5A). Oxygen partial pressure (pO2) levels were measured in BCa cell-seeded 3DeTME matrices incubated under variable O2 environments (21% and 1.5% O2) after 0, 2, 4 and 7 days of culture. 3DeTME scaffolds containing BCa cells were profiled along the z-direction with an oxygen microsensor (Needle-Type Oxygen Microsensor NTH-PSt7, PreSens, Regensburg, Germany) and a manual micromanipulator (FIG. 5B). Briefly, to record oxygen pressure, the sensor was introduced into the geometric center (3 measure points) of the 3DeTME and moved from the border between the media and 3DeTME (top) in 10 μm steps towards the bottom of the well plate, as illustrated in FIG. 5C. […]
Methods: Differences in lymphocyte infiltration into 3DeTME scaffolds as a result of different oxygen content were assessed. PBMCs were incorporated as cell suspension in the medium added on the top of the matrix at day 4 and analyzed at day 7. […] Mean absolute numbers of CD3+, CD4+, CD8+ and CD19+ cells (normalized to beads) were determined in each experimental group. […]

The mark [6] stands for this setting: 5 and 10 mg/ml, weight at day 24 vs day 0.

Procedure for MCF7: Methods: Three breast cancer (BCa) cell lines were previously labeled with DiD and incorporated in 3DeTME. Half a day after plating, cells were treated with a DMSO control (γCtrl) and increasing concentrations 0.1 nM-300 μM of seven standard-of-care chemotherapeutic drugs including Methotrexate (MTX), Paclitaxel (PTX), Capecitabine (CAP), Cyclophosphamide Monohydrate (CYCLO), Carboplatin (CARBO), Epirubicin Hydrochloride (EPI), and Docetaxel (DTX). Treatments were added on top of 3DeTME in order to simulate drug diffusion into a tumor. Treatments were refreshed at day 4 and BCa cells were retrieved from the different cultures for analysis at day 0.5 (γ0) and day 7. Samples were prepared in PBS for flow cytometry by adding counting beads (424902, Biolegend, CA) in addition to SytoxTM green dead cell stain (excitation 504 nm, emission 523 nm) ([MUT], Thermo Fisher Scientific, MA) for viability to each sample. BCa cells were identified by gating live cells with a DiD+ signal using the FL4 channel on BD AccuriTM C6 instrument (CFlow Software) (BD Biosciences). A minimum of 5×103 events was acquired per sample and BCa cell counts were acquired and data was analyzed using the FlowJoTM v10 (Ashland, Oreg.) software. Relative cell count and Growth rate (GR) values. […]

In the case of `CC(C)(C#N)c1cc(Cn2cncn2)cc(C(C)(C)C#N)c1` [Arimidex], the activity at 45 µM in assay [1] (Homo sapiens, 168 h, "responder" patient, read-out: survival of BCa cells (% of control)) was 17%. The “survival of BCa cells” value in assay [1] (patient with "resistance" clinical outcome, 45 μM) is “little to no effect”.
`[Ca+2].[Cl-].[Cl-]` [CaCl2, calcium chloride]: in assay [2] (cross-linker at 1 mg/ml), the “cross-linking time (fastest)” value turned out to be 4 min.
For the compound `CCCCCOC(=O)Nc1nc(=O)n([C@@H]2O[C@H](C)[C@@H](O)[C@H]2O)cc1F` [capecitabine, Capecitabine], the “type of drug effect (GR value)” value in assay [3] (over the concentrations tested) is “cytostatic”.
For `N.N.O=C([O-])C1(C(=O)[O-])CCC1.[Pt+2]` [carboplatin, Carboplatin], the “response among the BCa cell lines” value in assay [3] was “heterogeneous response”. The “sensitivity of the cell line relative to the other BCa cell lines” value in the assay on MDA-MB-231 is on record as “most sensitive”.
As for `NCCCCCC(=O)O` [epsilon-aminocaproic acid], in assay [4] (at the concentrations tested (0-2.5 mg/ml), day 24 vs day 0), the integrity benefit result was “not able to sustain an integrity benefit”.
`CN(Cc1cnc2nc(N)nc(N)c2n1)c1ccc(C(=O)N[C@@H](CCC(=O)O)C(=O)O)cc1` [methotrexate, Methotrexate]: in the assay on MCF7, the “sensitivity of the cell line relative to the other BCa cell lines” value is on record as “most resistant”. Besides, in assay [3], the “response among the BCa cell lines” value is on record as “heterogeneous response”.
On to `NC[C@H]1CC[C@H](C(=O)O)CC1` [tranexamic acid, trans-4-(aminomethyl)cyclohexanecarboxylic acid], for which, in assay [4] (setting [6]), the “weight gain as share of total weight” value is “around 10%” and the “weight gain of 3D culture” value was “about 24 mg”.
Consider “Durvalumab: selective, high-affinity human IgG1 mAb that blocks programmed cell death ligand-1 (PD-L1) binding to PD-1”, for which, in assay [5], the CD8 infiltration entry is “did reverse CD8 infiltration”.
Turning to “Factor XIII: cross-linker of the blood coagulation process, required activation by calcium”, the “cross-linking time (fastest)” value in assay [2] (cross-linker at 6 mg/ml, activated by incorporating calcium) is recorded as “over 40 min”.
For the compound thrombin, the cross-linking time in assay [2] (cross-linker at 5 mg/ml) came out at 5 min.
